Experiments:
Assay in all cases: relative viability (nuclei count vs DMSO), 5 days (fraction); higher = more cells survive
Lapatinib + Pemetrexed = compound: CS(=O)(=O)CCNCc1ccc(-c2ccc3ncnc(Nc4ccc(OCc5cccc(F)c5)c(Cl)c4)c3c2)o1 [Lapatinib] + Nc1nc2[nH]cc(CCc3ccc(C(=O)N[C@@H](CCC(=O)O)C(=O)O)cc3)c2c(=O)[nH]1 [Pemetrexed] (partner 0.2 µM)
In short: (§1)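 After 5 days of treatment, lung cancer cells in 1536-well plates were fixed and stained in a single step (final 0.05% Triton X-100, 1% formaldehyde, 1 ug/ml Hoechst) and their nuclei counted on 4× images. Treatment had been applied by pin tool the day after seeding as one drug alone or as a fixed anchor-drug dose with five library-drug doses (not always all listed) in √10 steps. Relative viability is the nuclei count of treated wells divided by that of vehicle wells, and values are medians of duplicate plates.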

Wnt-C59 + Linsitinib = compound: CC1=NC=CC(=C1)C2=CC=C(C=C2)CC(=O)NC3=CC=C(C=C3)C4=CN=CC=C4 [Wnt-C59] + C[C@]1(O)C[C@@H](c2nc(-c3ccc4ccc(-c5ccccc5)nc4c3)c3c(N)nccn32)C1 [Linsitinib] (partner 1 µM)
In short: as §1

Wnt-C59 + Bortezomib = compound: CC1=NC=CC(=C1)C2=CC=C(C=C2)CC(=O)NC3=CC=C(C=C3)C4=CN=CC=C4 [Wnt-C59] + CC(C)C[C@H](NC(=O)[C@H](Cc1ccccc1)NC(=O)c1cnccn1)B(O)O [Bortezomib] (partner 0.002 µM)
In short: as §1

Wnt-C59 + Pictilisib = compound: CC1=NC=CC(=C1)C2=CC=C(C=C2)CC(=O)NC3=CC=C(C=C3)C4=CN=CC=C4 [Wnt-C59] + CS(=O)(=O)N1CCN(Cc2cc3nc(-c4cccc5[nH]ncc45)nc(N4CCOCC4)c3s2)CC1 [Pictilisib] (partner 1 µM)
In short: as §1

Cell Line | relative viability (Lapatinib + Pemetrexed; first compound 0.06325 µM) | relative viability (Lapatinib + Pemetrexed; first compound 0.2 µM) | relative viability (Lapatinib + Pemetrexed; first compound 0.6325 µM) | relative viability (Lapatinib + Pemetrexed; first compound 2 µM) | relative viability (Wnt-C59 + Linsitinib; first compound 0.001 µM) | relative viability (Wnt-C59 + Linsitinib; first compound 0.01 µM) | relative viability (Wnt-C59 + Linsitinib; first compound 0.03162 µM) | relative viability (Wnt-C59 + Linsitinib; first compound 0.1 µM) | relative viability (Wnt-C59 + Bortezomib; first compound 0.001 µM) | relative viability (Wnt-C59 + Bortezomib; first compound 0.01 µM) | relative viability (Wnt-C59 + Bortezomib; first compound 0.03162 µM) | relative viability (Wnt-C59 + Bortezomib; first compound 0.1 µM) | relative viability (Wnt-C59 + Pictilisib; first compound 0.001 µM) | relative viability (Wnt-C59 + Pictilisib; first compound 0.01 µM) | relative viability (Wnt-C59 + Pictilisib; first compound 0.03162 µM) | relative viability (Wnt-C59 + Pictilisib; first compound 0.1 µM) | relative viability (Lapatinib + Pemetrexed; first compound 0.02 µM)
HCC-366 | 0.239 | 0.187 | 0.149 | 0.118 | 0.697 | 0.582 | 0.717 | 0.595 | 1.06 | 0.98 | 1.16 | 1.07 | 0.113 | 0.138 | 0.149 | 0.155 | 
COR-L23 | 0.189 | 0.2 | 0.204 | 0.203 | 1 | 0.893 | 1.08 | 0.837 | 1.02 | 0.944 | 0.912 | 0.95 | 0.745 | 0.653 | 0.818 | 0.79 | 0.214
PC-14 | 0.117 | 0.167 | 0.133 | 0.129 | 0.936 | 1.04 | 0.958 | 0.944 | 0.949 | 0.9 | 0.903 | 0.733 | 0.761 | 0.665 | 0.715 | 0.553 | 0.151
NCI-H2087 | 0.636 | 0.599 | 0.616 | 0.513 | 1.04 | 0.956 | 0.958 | 0.858 | 0.68 | 0.715 | 0.789 | 0.753 | 0.94 | 0.816 | 0.819 | 0.907 | 0.646
HCC-15 | 0.212 | 0.223 | 0.212 | 0.203 | 0.922 | 0.96 | 0.856 | 0.928 | 1.01 | 1.02 | 1.03 | 0.994 | 0.74 | 0.711 | 0.732 | 0.723 | 
NCI-H2228 | 0.34 | 0.312 | 0.272 | 0.331 | 0.606 | 0.95 | 0.77 | 0.878 | 1.07 | 0.746 | 1.07 | 0.855 | 0.479 | 0.505 | 0.573 | 0.252 | 0.338
NCI-H2126 | 0.484 | 0.655 | 0.672 | 0.607 | 0.755 | 0.7 | 0.723 | 0.701 | 1.12 | 1.09 | 1.11 | 1.11 | 0.451 | 0.446 | 0.489 | 0.479 | 0.379
EMC-BAC-2 | 0.452 | 0.475 | 0.475 | 0.45 | 0.736 | 0.642 | 0.741 | 0.709 | 0.913 | 0.926 | 0.998 | 0.943 | 0.5 | 0.491 | 0.463 | 0.453 | 

Source: the supplement of paper PMC10307832
